These are literature values, as cited in US5843713A, “Peptide sequence that forms mucin sugar chain and technique for modifying protein to be linked with mucin sugar chain” (Kirin Beer Kabushiki Kaisha, priority 1994, dated 1998).

One data set deals with crude enzyme solution of O-GalNAc T extracted from human breast cancer cells MCF7. To be noted: literature, J. Biol. Chem. Vol.269 (1994).
Regarding “PDTRAPPGS [literature peptide analogous to repetitive region of human mucin MUC1]”, the “transfer of GalNAc” value was “no transfer of GalNAc is observed”. “PDTRPAPGS [literature peptide analogous to repetitive region of human mucin MUC1]”: the “transfer of GalNAc” value was “no transfer of GalNAc is observed”.

For “PDTRPPAGS [literature peptide analogous to repetitive region of human mucin MUC1]”, the “transfer of GalNAc” value is “no transfer of GalNAc is observed”.

In the next data set the test system is O-GalNAc T derived from swine submaxillary gland. The note with it: literature, Biochemistry Vol.18 (1979).
As for “PRTPPP: literature peptide derived from bovine myelin basic protein”, the GalNAc acceptor activity result is on record as “highly active GalNAc acceptors”. Take “TPPP: literature peptide derived from bovine myelin basic protein (RTPPP)”: the GalNAc acceptor activity result is given as “highly active GalNAc acceptors”.

As for “TPRTPPP [literature peptide derived from bovine myelin basic protein]”, the GalNAc acceptor activity entry was “highly active GalNAc acceptors”.
